Reference: PMC6112750 (Oncotarget, 2018)

Molecular target: T1, SUV39H2 (Homo sapiens, UniProt Q9H5I1)
T1 construct: N-terminal GST fused SUV39H2
Assay: radiometric SPA methyltransferase assay with biotin-H3 ([…]-21) peptide and [3H]-SAM
Assay type: biochemical

T1 sequence (Q9H5I1 whole entry, the tested form may be a part): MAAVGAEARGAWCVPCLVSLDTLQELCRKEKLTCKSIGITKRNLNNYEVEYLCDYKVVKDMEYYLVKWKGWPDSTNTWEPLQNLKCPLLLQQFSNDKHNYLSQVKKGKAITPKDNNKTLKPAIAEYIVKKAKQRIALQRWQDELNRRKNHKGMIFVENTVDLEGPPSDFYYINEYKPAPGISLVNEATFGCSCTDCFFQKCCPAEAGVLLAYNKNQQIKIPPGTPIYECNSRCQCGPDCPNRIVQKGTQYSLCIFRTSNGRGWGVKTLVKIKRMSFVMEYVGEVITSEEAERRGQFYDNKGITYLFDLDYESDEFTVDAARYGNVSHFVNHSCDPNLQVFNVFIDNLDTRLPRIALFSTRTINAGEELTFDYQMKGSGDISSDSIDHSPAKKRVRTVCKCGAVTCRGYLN

IC50: 0.0222 µM
Compound: COc1cc(OC)c(-c2cn3ccc(N[C@H]4CC[C@@H](NCc5ccc([N+](=O)[O-])cc5)CC4)cc3n2)cc1Cl [OTS193320, (1s,4s)-N^1-(2-(5-chloro-2,4-dimethoxyphenyl)imidazo[1,2-a]pyridin-7-yl)-N^4-(4-nitrobenzyl)cyclohexane-1,4-diamine]
